Assay results taken from BigSolDB 2.1.

O=C(O)c1ccc(Cl)cc1Cl
solubility (mole fraction)
Conditions | in acetone | in acetonitrile | in ethanol | in ethyl acetate | in isobutanol | in isopropanol | in methanol | in n-butanol | in n-propanol | in toluene
273.15 K | 0.0323 | 0.00318 | 0.0364 | 0.0232 | 0.0242 | 0.0367 | 0.0261 | 0.0374 | 0.0348 | 0.00132
278.15 K | 0.0359 | 0.00361 | 0.04 | 0.0263 | 0.0281 | 0.0412 | 0.0294 | 0.0418 | 0.0385 | 0.00174
283.15 K | 0.0394 | 0.00451 | 0.0442 | 0.0308 | 0.0326 | 0.0459 | 0.0331 | 0.0468 | 0.0422 | 0.0022
288.15 K | 0.0439 | 0.00531 | 0.0485 | 0.0347 | 0.0375 | 0.0501 | 0.0369 | 0.0511 | 0.0465 | 0.00284
293.15 K | 0.0482 | 0.00597 | 0.0537 | 0.0395 | 0.043 | 0.0565 | 0.0411 | 0.0563 | 0.052 | 0.0036
298.15 K | 0.0531 | 0.00702 | 0.0591 | 0.0441 | 0.0483 | 0.0627 | 0.0458 | 0.0616 | 0.0575 | 0.00433
303.15 K | 0.0585 | 0.00786 | 0.065 | 0.0484 | 0.0535 | 0.0699 | 0.0505 | 0.0676 | 0.0631 | 0.00552
308.15 K | 0.0648 | 0.00929 | 0.0719 | 0.0537 | 0.0597 | 0.0769 | 0.0556 | 0.0746 | 0.0695 | 0.00671
313.15 K | 0.0713 | 0.0103 | 0.0788 | 0.0595 | 0.066 | 0.0849 | 0.0616 | 0.0814 | 0.0763 | 0.00837
318.15 K | 0.0784 | 0.0115 | 0.0849 | 0.0654 | 0.0719 | 0.0944 | 0.0673 | 0.0891 | 0.0823 | 0.00993
